Experimental data published in patent US9415055B2, “Cyclic amines” (H. Lundbeck A/S, priority 2012, dated 2016).

Each compound was assayed against P2X7 receptor (Homo sapiens (Human), UniProt Q99572) (assay: P2X7 FLIPR assay: antagonism of BzATP response in 293 HEK cells stably expressing P2X7 receptor). Conditions: FLIPR fluorescence (Fluo-4), agonist BzATP, 293 HEK cells stably transfected with P2X7 receptor.
Format: cell-based
How it was run: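 Antagonist IC50 derived from FLIPR Tetra Fluo-4 calcium signal evoked by BzATP. Compound pre-incubation was 30 min at room temperature on P2X7-expressing HEK293 cells, seeded 24 h before in low-serum medium and dye-loaded 30 min at 37 °C then 30 min at RT.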

Sequence of P2X7 receptor (Q99572 whole entry): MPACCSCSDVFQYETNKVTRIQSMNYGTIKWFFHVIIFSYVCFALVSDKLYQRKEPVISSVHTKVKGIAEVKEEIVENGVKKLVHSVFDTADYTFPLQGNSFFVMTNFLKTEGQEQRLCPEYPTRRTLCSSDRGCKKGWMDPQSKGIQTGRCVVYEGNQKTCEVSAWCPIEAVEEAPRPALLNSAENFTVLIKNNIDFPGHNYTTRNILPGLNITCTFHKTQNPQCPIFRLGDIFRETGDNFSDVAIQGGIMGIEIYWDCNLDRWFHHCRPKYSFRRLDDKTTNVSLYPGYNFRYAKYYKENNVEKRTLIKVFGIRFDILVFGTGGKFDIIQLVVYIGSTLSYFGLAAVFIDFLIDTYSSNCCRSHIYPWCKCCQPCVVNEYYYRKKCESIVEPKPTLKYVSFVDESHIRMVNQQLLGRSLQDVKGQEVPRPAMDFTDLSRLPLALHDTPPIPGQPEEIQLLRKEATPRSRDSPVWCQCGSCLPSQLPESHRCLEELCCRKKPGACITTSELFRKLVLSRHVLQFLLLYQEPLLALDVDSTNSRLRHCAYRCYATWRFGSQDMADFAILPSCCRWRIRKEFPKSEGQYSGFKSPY

Row | Structure (SMILES) | IC50
1 | N#Cc1ccc(Cl)c(C(=O)NCC(c2ccc(Cl)cc2)N2CCOCC2)c1 (single isomer, unassigned; (-)) [(−)2-chloro-N-[2-(4-chlorophenyl)-2-morpholino-ethyl]-5-cyan] [(−)2-chloro-N-(2-(4-chlorophenyl)-2-morpholinoethyl)-5-cyanobenzamide] | 110 nM
2 | CS(=O)(=O)c1ccc(Cl)c(C(=O)NCC(c2ccc(Cl)cc2)N2CCOCC2)c1 (single isomer, unassigned; (-)) [(−)2-chloro-N-[2-(4-chlorophenyl)-2-morpholino-ethyl]-5-meth] [(−)2-chloro-N-(2-(4-chlorophenyl)-2-morpholinoethyl)-5-(methylsulfonyl)benzamide] | 65 nM
3 | Cc1ncc(C(CNC(=O)c2ccccc2Cl)N2CCC(F)CC2)cn1 (single isomer, unassigned; (-)) [(−)2-chloro-N-[2-(4-fluoro-1-piperidyl)-2-(2-methylpyrimidin] [(−)2-chloro-N-(2-(4-fluoropiperidin-1-yl)-2-(2-methylpyrimidin-5-yl)ethyl)benzamide] | 45 nM
4 | O=C(NCC(c1cnc(C(F)(F)F)nc1)N1CCC(F)CC1)c1ccccc1Cl (single isomer, unassigned; (-)) [(−)2-chloro-N-[2-(4-fluoro-1-piperidyl)-2-[2-(trifluoromethy] [(−)2-chloro-N-(2-(4-fluoropiperidin-1-yl)-2-(2-(trifluoromethyl)pyrimidin-5-yl)ethyl)benzamide] | 13 nM
5 | O=C(NCC(c1cnc(C(F)F)nc1)N1CCOCC1)c1cccc(F)c1Cl (single isomer, unassigned; (-)) [(−)2-chloro-N-[2-[2-(difluoromethyl)pyrimidin-5-yl]-2-morpho] [(−)2-chloro-3-fluoro-N-(2-(2-(difluoromethyl)pyrimidin-5-yl)-2-morpholinoethyl)benzamide] | 38 nM
6 | O=C(NCC(c1cnc(C(F)F)nc1)N1CCOCC1)c1ccccc1Cl (single isomer, unassigned; (-)) [(−)2-chloro-N-[2-[2-(difluoromethyl)pyrimidin-5-yl]-2-morpho] [(−)2-chloro-N-(2-(2-(difluoromethyl)pyrimidin-5-yl)-2-morpholinoethyl)benzamide] | 15 nM
7 | O=C(NCC(c1ccc(C(F)F)nc1)N1CCC(F)(F)CC1)c1ccccc1Cl (single isomer, unassigned; (-)) [(−)2-chloro-N-[2-[6-(difluoromethyl)-3-pyridyl]-2-(4,4-diflu] [(−)2-chloro-N-(2-(2-(difluoromethyl)pyridin-5-yl)-2-(4,4-difluoropiperidin-1-yl)ethyl)benzamide] | 12 nM
8 | O=C(NCC(c1cnc(C(F)(F)F)nc1)N1CCOCC1)c1ccccc1Cl (single isomer, unassigned; (-)) [(−)2-chloro-N-[2-morpholino-2-[2-(trifluoromethyl)pyrimidin-] [(−)2-Chloro-N-[2-morpholino-2-[2-(trifluoromethyl)pyrimidin-5-yl]ethyl]benzamide] | 15 nM
9 | O=C(NCC(c1ccc(C(F)(F)F)nc1)N1CCOCC1)c1cccc(C(F)(F)F)c1Cl (single isomer, unassigned; (-)) [(−)2-chloro-N-[2-morpholino-2-[6-(trifluoromethyl)-3-pyridyl] [(−)2-Chloro-N-[2-morpholino-2-[6-(trifluoromethyl)-3-pyridyl]ethyl]-3-(trifluoromethyl)benzamide] | 12 nM
10 | COc1ccccc1C(=O)NCC(c1ccc(C(F)(F)F)nc1)N1CCOCC1 (single isomer, unassigned; (-)) [(−)2-methoxy-N-[2-morpholino-2-[6-(trifluoromethyl)-3-pyridy] [(−)2-Methoxy-N-[2-morpholin-4-yl-2-(6-trifluoromethyl-pyridin-3-yl)-ethyl]-benzamide] | 21 nM
11 | Cc1ncc(C(CNC(=O)c2cccc(Cl)c2Cl)N2CCC(=O)CC2)cn1 (stereo not shown) [2,3-Dichloro-N-(2-(2-methylpyrimidin-5-yl)-2-(4-oxopiperidin-1-yl)ethyl)benzamide] | 19 nM
12 | O=C(NCC(c1cccnc1)N1CCOCC1)c1cccc(Cl)c1Cl (stereo not shown) [2,3-Dichloro-N-(2-morpholin-4-yl-2-pyridin-3-yl-ethyl)-benzamide] | 1100 nM
13 | O=C(NCC(c1ccncc1)N1CCOCC1)c1cccc(Cl)c1Cl (stereo not shown) [2,3-Dichloro-N-(2-morpholin-4-yl-2-pyridin-4-yl-ethyl)-benzamide] | 750 nM
14 | O=C(NCC(c1cncnc1)N1CCOCC1)c1cccc(Cl)c1Cl (stereo not shown) [2,3-Dichloro-N-(2-morpholino-2-pyrimidin-5-yl-ethyl)benzamide] | 28 nM
15 | O=C(NCC(c1ccc(F)cc1)N1CCOCC1)c1cccc(Cl)c1Cl (stereo not shown) [2,3-Dichloro-N-[2-(4-fluoro-phenyl)-2-morpholin-4-yl-ethyl]-benzamide] | 11 nM
16 | COc1ccc(C(CNC(=O)c2cccc(Cl)c2Cl)N2CCOCC2)cc1 (stereo not shown) [2,3-Dichloro-N-[2-(4-methoxy-phenyl)-2-morpholin-4-yl-ethyl]-benzamide] | 13 nM
17 | COc1ccc(C(CNC(=O)c2cccc(Cl)c2Cl)N2CCCCC2)cc1 (stereo not shown) [2,3-Dichloro-N-[2-(4-methoxy-phenyl)-2-piperidin-1-yl-ethyl]-benzamide] | 350 nM
18 | Cc1cccc(C(=O)NCC(c2cccnc2)N2CCOCC2)c1C (stereo not shown) [2,3-Dimethyl-N-(2-morpholin-4-yl-2-pyridin-3-yl-ethyl)-benzamide] | 2700 nM
19 | Cc1cccc(C(=O)NCC(c2ccncc2)N2CCOCC2)c1C (stereo not shown) [2,3-Dimethyl-N-(2-morpholin-4-yl-2-pyridin-4-yl-ethyl)-benzamide] | 1400 nM
20 | Cc1ncc(C(CNC(=O)c2cccc(Cl)c2Cl)N2CCCCC2C(C)C)cn1 (stereo not shown) [2,3-dichloro-N-(2-(2-isopropylpiperidin-1-yl)-2-(2-methylpyrimidin-5-yl)ethyl)benzamide] | 1900 nM
21 | Cc1ncc(C(CNC(=O)c2cccc(Cl)c2Cl)N2CCCCC2C)cn1 (stereo not shown) [2,3-dichloro-N-(2-(2-methylpiperidin-1-yl)-2-(2-methylpyrimidin-5-yl)ethyl)benzamide] | 310 nM
22 | Cc1ncc(C(CNC(=O)c2cccc(Cl)c2Cl)N2CCCOCC2)cn1 (stereo not shown) [2,3-dichloro-N-(2-(2-methylpyrimidin-5-yl)-2-(1,4-oxazepan-4-yl)ethyl)benzamide] | 29 nM
23 | Cc1ncc(C(CNC(=O)c2cccc(Cl)c2Cl)N2CCC(C)C2)cn1 (stereo not shown) [2,3-dichloro-N-(2-(2-methylpyrimidin-5-yl)-2-(3-methylpyrrolidin-1-yl)ethyl)benzamide] | 1000 nM
24 | Cc1ncc(C(CNC(=O)c2cccc(Cl)c2Cl)N2CCCC(C)C2)cn1 (stereo not shown) [2,3-dichloro-N-(2-(3-methylpiperidin-1-yl)-2-(2-methylpyrimidin-5-yl)ethyl)benzamide] | 170 nM

Now those with a lower IC50, led by results:

Row | IC50 | Structure (SMILES)
25 | 1.5 nM | COc1cccc(C(=O)NCC(c2ccc(Cl)cc2)N2CCOCC2)c1Cl (single isomer, unassigned; (-)) [(−)2-chloro-N-[2-(4-chlorophenyl)-2-morpholino-ethyl]-3-meth] [(−)2-chloro-N-(2-(4-chlorophenyl)-2-morpholinoethyl)-3-methoxybenzamide]
26 | 1.9 nM | COc1cccc(C(=O)NCC(c2ccc(C(F)F)nc2)N2CCC(F)(F)CC2)c1Cl (single isomer, unassigned; (-)) [(−)2-chloro-N-[2-[6-(difluoromethyl)-3-pyridyl]-2-(4,4-diflu] [(−)2-chloro-3-methoxy-N-(2-(2-(difluoromethyl)pyridin-5-yl)-2-(4,4-difluoropiperidin-1-yl)ethyl)benzamide]
27 | 9.9 nM | O=C(NCC(c1cnc(C(F)(F)F)nc1)N1CCOCC1)c1cccc(C(F)(F)F)c1Cl (single isomer, unassigned; (-)) [(−)2-chloro-N-[2-morpholino-2-[2-(trifluoromethyl)pyrimidin-] [(−)2-Chloro-N-[2-morpholino-2-[2-(trifluoromethyl)pyrimidin-5-yl]ethyl]-3-(trifluoromethyl)benzamide]
28 | 0.89 nM | O=C(NCC(c1ccc(F)nc1)N1CCC(F)(F)CC1)c1cccc(Cl)c1Cl (stereo not shown) [2,3-Dichloro-N-[2-(4,4-difluoro-1-piperidyl)-2-(6-fluoro-3-pyridyl)ethyl]benzamide]
29 | 1.3 nM | O=C(NCC(c1ccc(C(F)(F)F)nc1)N1CCC(F)(F)CC1)c1cccc(Cl)c1Cl (stereo not shown) [2,3-Dichloro-N-[2-(4,4-difluoro-1-piperidyl)-2-[6-(trifluoromethyl)-3-pyridyl]ethyl]benzamide]
30 | 0.33 nM | O=C(NCC(c1ccc(F)cc1)N1CCC(F)(F)CC1)c1cccc(Cl)c1Cl (stereo not shown) [2,3-Dichloro-N-[2-(4,4-difluoro-piperidin-1-yl)-2-(4-fluoro-phenyl)-ethyl]-benzamide]
31 | 0.6 nM | O=C(NCC(c1ccc(Cl)cc1)N1CCOCC1)c1cccc(Cl)c1Cl (stereo not shown) [2,3-Dichloro-N-[2-(4-chloro-phenyl)-2-morpholin-4-yl-ethyl]-benzamide]
32 | 3.9 nM | O=C(NCC(c1ccc(Cl)nc1)N1CCOCC1)c1cccc(Cl)c1Cl (stereo not shown) [2,3-Dichloro-N-[2-(6-chloro-3-pyridyl)-2-morpholino-ethyl]benzamide]
33 | 8.2 nM | O=C(NCC(c1ccc(C2CC2)nc1)N1CCOCC1)c1cccc(Cl)c1Cl (stereo not shown) [2,3-Dichloro-N-[2-(6-cyclopropyl-pyridin-3-yl)-2-morpholin-4-yl-ethyl]-benzamide]
34 | 0.62 nM | O=C(NC[C@H](c1ccc(Cl)cc1)N1CCOCC1)c1cccc(Cl)c1Cl [2,3-Dichloro-N-[(S)-2-(4-chloro-phenyl)-2-morpholin-4-yl-ethyl]benzamide]
35 | 2.6 nM | Cc1ncc(C(CNC(=O)c2cccc(Cl)c2Cl)N2CC(F)(F)C(F)(F)C2)cn1 (stereo not shown) [2,3-dichloro-N-(2-(2-methylpyrimidin-5-yl)-2-(3,3,4,4-tetrafluoropyrrolidin-1-yl)ethyl)benzamide]
36 | 6.6 nM | CN(C)c1ncc(C(CNC(=O)c2cccc(Cl)c2Cl)N2CCC(F)(F)CC2)cn1 (stereo not shown) [2,3-dichloro-N-(2-(4,4-difluoropiperidin-1-yl)-2-(2-(dimethylamino)pyrimidin-5-yl)ethyl)benzamide]
37 | 0.65 nM | O=C(NCC(c1cnc(C(F)(F)F)nc1)N1CCC(F)(F)CC1)c1cccc(Cl)c1Cl (stereo not shown) [2,3-dichloro-N-(2-(4,4-difluoropiperidin-1-yl)-2-(2-(trifluoromethyl)pyrimidin-5-yl)ethyl)benzamide]
